# Paper PMC3592416 (Nucleic Acids Research, 2012)
# Tests used:
# PoTC [1] = molecular target: T1, PoTC (Saccharomyces cerevisiae, UniProt P02406+P0CX27); assay: Release of mRNA from PoTC; assay type: biochemical; conditions: for effect of Mg2+ on the inhibitory effect (mRNA release): 100 µM antibiotic, various concentrations of MgCl2
# eEF3/ribosomes = assay: ATP hydrolysis assay; assay type: biochemical, Saccharomyces cerevisiae; conditions: for amount of ATPase inhibited: total ATP hydrolysis 97 pmol
# PoTC [2] = molecular target: T1, PoTC; assay: Complete disassembly of PoTC by eEF3/ATP; assay type: biochemical; conditions: for inhibition of eEF3-dependent disassembly reaction: 1 mM antibiotic
# translocation = conditions: cited from earlier work
# vacant ribosomes = conditions: read-out: Kd with vacant ribosomes; cited from earlier work
# PoTC [3] = molecular target: T1, PoTC; conditions: cited from earlier work
# PoTC [4] = molecular target: T1, PoTC; conditions: inhibitor alone, without eEF2/GTP; cited from earlier work
# yeast ribosomal subunits = assay: Induction of subunit association; assay type: biochemical; conditions: 1 mM PAR, 5 s at 30°C after disassembly
# [5] = 1 mM antibiotic, 50 µM ATP, 0.5 µM eEF3, 1 min 30°C
# T1 sequence (P02406 2-149): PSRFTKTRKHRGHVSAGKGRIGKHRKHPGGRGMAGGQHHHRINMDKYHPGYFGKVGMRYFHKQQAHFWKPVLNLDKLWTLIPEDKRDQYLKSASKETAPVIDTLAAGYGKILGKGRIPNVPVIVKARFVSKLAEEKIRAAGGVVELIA
# T1 sequence (P0CX27 2-106): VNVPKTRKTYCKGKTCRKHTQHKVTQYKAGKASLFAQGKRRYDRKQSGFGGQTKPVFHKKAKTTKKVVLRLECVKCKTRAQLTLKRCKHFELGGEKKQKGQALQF
# T1 sequence (P16521 2-1044 partner): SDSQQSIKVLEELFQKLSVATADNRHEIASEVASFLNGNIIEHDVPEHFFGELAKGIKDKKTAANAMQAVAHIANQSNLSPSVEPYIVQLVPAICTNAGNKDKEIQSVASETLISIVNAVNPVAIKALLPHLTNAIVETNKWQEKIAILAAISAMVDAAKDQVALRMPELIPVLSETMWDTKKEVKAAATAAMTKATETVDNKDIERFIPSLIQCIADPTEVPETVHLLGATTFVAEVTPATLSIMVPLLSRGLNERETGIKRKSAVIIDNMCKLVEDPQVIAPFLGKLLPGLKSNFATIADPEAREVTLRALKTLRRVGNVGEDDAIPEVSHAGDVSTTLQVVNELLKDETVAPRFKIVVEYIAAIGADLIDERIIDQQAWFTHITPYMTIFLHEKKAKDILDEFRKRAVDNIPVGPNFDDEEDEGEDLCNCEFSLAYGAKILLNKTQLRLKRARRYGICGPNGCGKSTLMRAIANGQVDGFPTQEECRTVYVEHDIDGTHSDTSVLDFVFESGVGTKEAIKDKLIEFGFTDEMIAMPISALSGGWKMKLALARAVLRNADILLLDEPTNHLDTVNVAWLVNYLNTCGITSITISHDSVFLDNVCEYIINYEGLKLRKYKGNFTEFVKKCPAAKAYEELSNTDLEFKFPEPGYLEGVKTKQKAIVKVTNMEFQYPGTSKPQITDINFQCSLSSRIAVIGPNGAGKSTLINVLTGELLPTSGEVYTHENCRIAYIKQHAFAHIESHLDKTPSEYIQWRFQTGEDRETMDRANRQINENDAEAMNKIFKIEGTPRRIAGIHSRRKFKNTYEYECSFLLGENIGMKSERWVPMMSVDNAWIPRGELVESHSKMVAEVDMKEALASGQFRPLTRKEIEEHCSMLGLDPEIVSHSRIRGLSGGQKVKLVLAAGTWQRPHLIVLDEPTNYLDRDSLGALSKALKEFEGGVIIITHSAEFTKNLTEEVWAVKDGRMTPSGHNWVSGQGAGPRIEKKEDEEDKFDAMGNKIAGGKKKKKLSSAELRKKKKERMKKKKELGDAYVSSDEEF
SMILES,effect of Mg2+ on the inhibitory effect (mRNA release) (PoTC [1]),inhibition of ATP hydrolysis by eEF3/ribosomes (eEF3/ribosomes; [5]) [%],amount of ATPase inhibited (eEF3/ribosomes; 1 mM antibiotic) [pmol],inhibition of eEF3-dependent disassembly reaction (PoTC [2]),inhibition of eEF3-dependent release of mRNA from PoTC (PoTC [4]),also measured
"C[C@@H]1C[C@@H]([C@H](O)CC2CC(=O)NC(=O)C2)C(=O)[C@@H](C)C1 [CHX, cycloheximide]",remarkable stimulatory effect,~20,22,almost complete maximum inhibition,,"mode of inhibition with respect to ATP (PoTC [1]; Lineweaver-Burk, mRNA release): non-competitive inhibitor; mode of inhibition with respect to eEF3 (PoTC [1]; Lineweaver-Burk, mRNA release): non-competitive inhibitor; IC50 (translocation; read-out: IC50 for the inhibition of translocation): 1.2 µM; Kd (vacant ribosomes): 15 µM"
"C/C(=C\[C@H](C)C(=O)C[C@H](O)CC1CC(=O)NC(=O)C1)[C@@H]1OC(=O)/C=C/CC/C=C/C=C\[C@@H]1C [LTM, lactimidomycin]",,,,,,concentration at which maximum inhibition was obtained (PoTC [2]; three disassembly reactions): 100 µM; concentration which inhibits translocation almost completely (translocation): 200 µM
[O]=[V]([O-])([O-])[O-] [vanadate],,,,,,amount of ATP hydrolysis inhibited (eEF3/ribosomes; vanadate positive control): 52 pmol; inhibition of ATP hydrolysis by eEF3/ribosomes (eEF3/ribosomes; vanadate positive control): about 50%; effect on the disassembly of PoTC (PoTC [3]): without inhibiting
"CO[C@H]1[C@@H](O)[C@H](O)[C@H](OC[C@@]23C[C@@H]4[C@H](C)CC[C@H]4[C@@]4(C=O)CC2C=C(C(C)C)[C@@]34C(=O)O)O[C@@H]1C [SOR, sordarin]",,,,,only slightly inhibit,
"CC(=O)O[C@H]1C[C@@]2(C)[C@@H](C[C@@H](O)[C@H]3[C@@]4(C)CC[C@@H](O)[C@@H](C)[C@@H]4CC[C@@]32C)/C1=C(\CCC=C(C)C)C(=O)O [FA, fusidic acid]",,,,,only slightly inhibit,
"NC[C@@H]1O[C@H](O[C@H]2[C@@H](O)[C@H](O[C@@H]3[C@@H](O)[C@H](N)C[C@H](N)[C@H]3O[C@H]3O[C@H](CO)[C@@H](O)[C@H](O)[C@H]3N)O[C@@H]2CO)[C@H](N)[C@@H](O)[C@@H]1O [PAR, paromomycin]",not significantly influenced,~20,22,almost complete maximum inhibition,,association of ribosomal subunits (yeast ribosomal subunits): re-associated yeast ribosomal subunits
